Literature values as cited in doi:10.1101/2025.05.01.651722v1 (bioRxiv, 2025).
No end group written: not given here.

Conditions: solubility maintained by hydrophilic arginine tail

Substance: H-RLTRKRGLKLAGGGGGRRRRRRRRR [ApoB^11]
- hydrophobicity of the peptide: highly hydrophobic
